Experimental data from the NIST ThermoML archive (doi:10.1021/acs.jced.5b00845).

Key:
[1] = cn = amount concentration of the nth substance listed, in mol/dm3; conditions: 100 kPa, Liquid, Capillary tube (Ostwald / Ubbelohde) method
[2] = mn = molality of the nth substance listed, in mol/kg; conditions: 100 kPa, Liquid, Capillary tube (Ostwald / Ubbelohde) method
[3] = 100 kPa, Liquid, Capillary tube (Ostwald / Ubbelohde) method

O=C(CO)[C@@H](O)[C@H](O)[C@H](O)CO [D-fructose] + O
viscosity [mPa·s], [1]
Conditions | c1 = 0.0628 | c1 = 0.06594 | c1 = 0.08345 | c1 = 0.1124 | c1 = 0.1285 | c1 = 0.1523
288.15 K | 1.174 | 1.175 | 1.185 | 1.201 | 1.209 | 1.222
298.15 K | 0.916 | 0.917 | 0.924 | 0.935 | 0.941 | 0.951
308.15 K | 0.739 | 0.74 | 0.745 | 0.754 | 0.759 | 0.766
318.15 K | 0.61 | 0.611 | 0.614 | 0.621 | 0.624 | 0.629

C[C@@H]1O[C@@H](O)[C@H](O)[C@H](O)[C@H]1O [6-deoxy-α-L-mannopyranose] + O
viscosity [mPa·s], [2]
Conditions | m1 = 0.04655 | m1 = 0.05637 | m1 = 0.08317 | m1 = 0.0856 | m1 = 0.1109 | m1 = 0.1248 | m1 = 0.1471
288.15 K | 1.165 | 1.171 | 1.186 | 1.187 | 1.202 | 1.21 | 1.222
298.15 K | 0.91 | 0.914 | 0.925 | 0.926 | 0.937 | 0.943 | 0.952
308.15 K | 0.734 | 0.737 | 0.746 | 0.747 | 0.755 | 0.759 | 0.766
318.15 K | 0.608 | 0.61 | 0.617 | 0.618 | 0.623 | 0.627 | 0.632

O=C[C@H](O)[C@@H](O)[C@H](O)[C@H](O)CO [D-glucose] + O
viscosity [mPa·s], [2]
Conditions | m1 = 0.05335 | m1 = 0.06616 | m1 = 0.08424 | m1 = 0.1038 | m1 = 0.1142 | m1 = 0.1323
288.15 K | 1.167 | 1.175 | 1.185 | 1.196 | 1.202 | 1.211
298.15 K | 0.912 | 0.918 | 0.924 | 0.932 | 0.936 | 0.943
308.15 K | 0.736 | 0.74 | 0.744 | 0.75 | 0.754 | 0.759
318.15 K | 0.609 | 0.612 | 0.616 | 0.621 | 0.623 | 0.628

O=C[C@H](O)[C@H](O)[C@H](O)CO [D-ribose] + O
viscosity [mPa·s], [2]
Conditions | m1 = 0.05682 | m1 = 0.06586 | m1 = 0.07814 | m1 = 0.09455 | m1 = 0.1051 | m1 = 0.1285
288.15 K | 1.159 | 1.163 | 1.168 | 1.174 | 1.178 | 1.187
298.15 K | 0.906 | 0.909 | 0.912 | 0.917 | 0.919 | 0.926
308.15 K | 0.731 | 0.733 | 0.736 | 0.739 | 0.741 | 0.746
318.15 K | 0.605 | 0.607 | 0.609 | 0.612 | 0.614 | 0.618

O [water]
[3]
Conditions | viscosity [mPa·s]
288.15 K | 1.138
298.15 K | 0.89
308.15 K | 0.719
318.15 K | 0.596

CO[C@H]1O[C@H](CO)[C@@H](O)[C@H](O)[C@H]1O [methyl-α-D-glucopyranoside] + O
viscosity [mPa·s], [2]
Conditions | m1 = 0.06502 | m1 = 0.07733 | m1 = 0.09597 | m1 = 0.1109 | m1 = 0.1219 | m1 = 0.122 | m1 = 0.1465
288.15 K | 1.174 | 1.181 | 1.191 | 1.2 | 1.207 | 1.206 | 1.219
298.15 K | 0.917 | 0.922 | 0.929 | 0.935 | 0.941 | 0.94 | 0.95
308.15 K | 0.74 | 0.744 | 0.749 | 0.754 | 0.758 | 0.757 | 0.765
318.15 K | 0.612 | 0.615 | 0.619 | 0.623 | 0.625 | 0.626 | 0.631

CO[C@H]1O[C@H](CO)[C@@H](O)[C@H](O)[C@@H]1O [α-methyl mannopyranoside] + O
viscosity [mPa·s], [2]
Conditions | m1 = 0.05551 | m1 = 0.0769 | m1 = 0.09681 | m1 = 0.1166 | m1 = 0.1344 | m1 = 0.1466 | m1 = 0.1632
288.15 K | 1.172 | 1.185 | 1.197 | 1.209 | 1.22 | 1.227 | 1.237
298.15 K | 0.916 | 0.925 | 0.934 | 0.943 | 0.951 | 0.956 | 0.964
308.15 K | 0.739 | 0.746 | 0.753 | 0.76 | 0.766 | 0.77 | 0.775
318.15 K | 0.611 | 0.617 | 0.623 | 0.628 | 0.633 | 0.636 | 0.64

O=C[C@H](O)[C@@H](O)[C@H](O[C@@H]1O[C@H](CO)[C@H](O)[C@H](O)[C@H]1O)[C@H](O)CO [4-O-β-D-galactopyranosyl-D-glucose] + O
viscosity [mPa·s], [2]
Conditions | m1 = 0.04915 | m1 = 0.0521 | m1 = 0.06429 | m1 = 0.07299 | m1 = 0.09149 | m1 = 0.1001 | m1 = 0.1211 | m1 = 0.1528
288.15 K | 1.198 | 1.202 | 1.216 | 1.227 | 1.249 | 1.259 | 1.284 | 1.321
298.15 K | 0.936 | 0.938 | 0.949 | 0.957 | 0.974 | 0.982 | 1 | 1.028
308.15 K | 0.755 | 0.757 | 0.766 | 0.772 | 0.785 | 0.791 | 0.806 | 0.828
318.15 K | 0.625 | 0.626 | 0.633 | 0.638 | 0.649 | 0.654 | 0.665 | 0.683

O=CC[C@H](O)[C@H](O)CO [2-deoxy-D-erythropentose] + O
viscosity [mPa·s], [2]
Conditions | m1 = 0.05709 | m1 = 0.07583 | m1 = 0.09188 | m1 = 0.09812 | m1 = 0.1124 | m1 = 0.1366 | m1 = 0.1466
288.15 K | 1.163 | 1.172 | 1.179 | 1.181 | 1.188 | 1.198 | 1.202
298.15 K | 0.909 | 0.915 | 0.92 | 0.922 | 0.927 | 0.935 | 0.938
308.15 K | 0.734 | 0.738 | 0.742 | 0.744 | 0.747 | 0.753 | 0.755
318.15 K | 0.607 | 0.611 | 0.614 | 0.615 | 0.618 | 0.623 | 0.624
